Values of other authors as cited in patent publication US20110071026A1, “LOW VISCOSITY, AQUEOUS […] CONCENTRATES” (priority 2009, published 2011).

Details: at 25° C.; acid form

O=C(O)CNCP(=O)(O)O [glyphosate, N-(phosphonomethyl)glycine]
solubility in water: about 12 g/L
